Converted amounts (≈) assume the structure as drawn. Structures can show the parent of a compound that is named as a salt.
How the values were obtained:
[1] = target: T1, MAO-A (Homo sapiens, UniProt P21397); assay: MAO-A inhibition, standard in-vitro assay, human liver enzyme expressed in yeast; format: biochemical
T1 construct: made in house; host or cells: yeast
T1 sequence (P21397 1-527): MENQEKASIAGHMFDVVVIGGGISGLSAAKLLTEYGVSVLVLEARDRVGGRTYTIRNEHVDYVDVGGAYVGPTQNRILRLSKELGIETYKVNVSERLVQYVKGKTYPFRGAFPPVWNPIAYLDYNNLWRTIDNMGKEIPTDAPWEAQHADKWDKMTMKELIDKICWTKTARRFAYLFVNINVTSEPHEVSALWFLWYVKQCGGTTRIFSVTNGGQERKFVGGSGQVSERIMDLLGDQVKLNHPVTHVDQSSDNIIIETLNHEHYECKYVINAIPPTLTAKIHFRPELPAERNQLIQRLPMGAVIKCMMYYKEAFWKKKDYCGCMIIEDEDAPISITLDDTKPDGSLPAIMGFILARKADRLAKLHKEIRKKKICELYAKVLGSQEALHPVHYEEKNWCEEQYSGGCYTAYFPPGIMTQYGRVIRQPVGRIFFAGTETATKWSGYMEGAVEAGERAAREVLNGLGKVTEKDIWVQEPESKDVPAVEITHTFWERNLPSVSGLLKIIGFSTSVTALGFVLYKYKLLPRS
Protocol: The activity of the compounds of the invention against MAO-A was tested using a standard in-vitro assay based on human liver enzyme expressed in yeast as described in Biochem. Biophys. Res. Commun. 1991, 181, 1084-1088. Compounds of the invention typically give Ki values of >5 μM when measured in such an assay as above.

[2] = equilibrium solubility in pH 7.4 phosphate buffer; format: physicochemical; details: aqueous buffer, thermodynamic from solid
Text: It will be understood that parameters such as solubility may be measured by any suitable technique known in the art.

[3] = system: Staphylococcus aureus MSQS; assay: MIC, agar-dilution, Staphylococcus aureus MSQS; format: cell-based; details: Staphylococcus aureus MSQS (methicillin sensitive and quinolone sensitive)
Protocol: (§1) The following results were obtained on a standard in-vitro test system. The activity is described in terms of the minimum inhibitory concentration (MIC) determined by the agar-dilution technique with an inoculum size of 10^4 CFU/spot. Typically, compounds are active in the range 0.01 to 256 μg/ml.
(§2) Staphylococci were tested on agar, using an inoculum of 10^4 CFU/spot and an incubation temperature of 37° C. for 24 hours—standard test conditions for the expression of methicillin resistance.

[4] = system: Staphylococcus aureus MRQR; assay: MIC, agar-dilution, Staphylococcus aureus MRQR; format: cell-based; details: Staphylococcus aureus MRQR (methicillin resistant and quinolone resistant)
Protocol: as §1, §2

[5] = system: Streptococcus pneumoniae; assay: MIC, Streptococcus pneumoniae; format: cell-based
Protocol: as §1
(§3) Streptococci and enterococci were tested on agar supplemented with 5% defibrinated horse blood, an inoculum of 10^4 CFU/spot and an incubation temperature of 37° C. in an atmosphere of 5% carbon dioxide for 48 hours—blood is required for the growth of some of the test organisms. Fastidious Gram negative organisms were tested in Mueller-Hinton broth, supplemented with hemin and NAD, grown aerobically for 24 hours at 37° C., and with an innoculum of 5×10^4 CFU/well.

[6] = system: Linezolid Resistant Streptococcus pneumoniae; assay: MIC, Linezolid Resistant Streptococcus pneumoniae; format: cell-based
Protocol: as §1, §3

[7] = system: Haemophilus influenzae; assay: MIC, Haemophilus influenzae; format: cell-based
Protocol: as §1, §3

Ki [1] [µM] | melting point | SMILES | further results
< 0.3 |  | O=C1O[C@@H](Cn2ccnn2)CN1c1ccc(-c2cccnc2)c(F)c1 [Ref Example 4, (5R)-3-(3-Fluoro-4-pyridin-3-ylphenyl)-5-(1H-1,2,3-triazol-1-ylmethyl)-1,3-oxazolidin-2-one] | 
 | 137 °C | CN(CCO)Cc1ccc(-c2ccc(N3C[C@H](Cn4ccnn4)OC3=O)cc2F)cn1 [Example 7, (5R)-3-[3-Fluoro-4-(6-{[(2-hydroxyethyl)(methyl)amino]methyl}pyridin-3-yl)phenyl]-5-(1H-1,2,3-triazol-1-ylmethyl)-1,3-oxazolidin-2-one] | 
 | 183 °C | C[C@H](O)c1ccc(-c2ccc(N3C[C@H](Cn4ccnn4)OC3=O)cc2F)cn1 [Example 11, (5R)-3-(3-Fluoro-4-{6-[(1S)-1-hydroxyethyl]pyridin-3-yl}phenyl)-5-(1H-1,2,3-triazol-1-ylmethyl)-1,3-oxazolidin-2-one] | 
 | 190 °C | C[C@@H](O)c1ccc(-c2ccc(N3C[C@H](Cn4ccnn4)OC3=O)cc2F)cn1 [Example 10, (5R)-3-(3-Fluoro-4-{6-[(1R)-1-hydroxyethyl]pyridin-3-yl}phenyl)-5-(1H-1,2,3-triazol-1-ylmethyl)-1,3-oxazolidin-2-one] | 
 | > 194 °C (dec.) | O=C1O[C@@H](Cn2ccnn2)CN1c1ccc(-c2ccc(C(O)CN3CCOCC3)nc2)c(F)c1 (stereo partly drawn) (as salt: hydrochloride) [Example 1, (5R)-3-{3-Fluoro-4-[6-(1-hydroxy-2-morpholin-4-ylethyl)pyridin-3-yl]phenyl}-5-(1H-1,2,3-triazol-1-ylmethyl)-1,3-oxazolidin-2-one] | 
 | 160 to 163 °C | O=C1O[C@@H](Cn2ccnn2)CN1c1ccc(-c2ccc(C(O)C3CC3)nc2)c(F)c1 (stereo partly drawn) [Example 16, (5R)-3-(4-{6-[Cyclopropyl(hydroxy)methyl]pyridin-3-yl}-3-fluorophenyl)-5-(1H-1,2,3-triazol-1-ylmethyl)-1,3-oxazolidin-2-one] | 
 | 180 °C | CC(C)(O)c1ccc(-c2ccc(N3C[C@H](Cn4ccnn4)OC3=O)cc2F)cn1 [Example 5, (5R)-3-{3-Fluoro-4-[6-(1-hydroxy-1-methylethyl)pyridin-3-yl]phenyl}-5-(1-1,2,3-triazol-1-ylmethyl)-1,3-oxazolidin-2-one] | 
 | 195 to 200 °C | Cc1cnc(C)n1CC(O)c1ccc(-c2ccc(N3C[C@H](Cn4ccnn4)OC3=O)cc2F)cn1 (stereo partly drawn) [Example 20, (5R)-3-(4-{6-[2-(2,5-Dimethyl-1H-imidazol-1-yl)-1-hydroxyethyl]pyridin-3-yl}-3-fluorophenyl)-5-(1H-1,2,3-triazol-1-ylmethyl)-1,3-oxazolidin-2-one] | 
 | 123 °C | CN(Cc1ccc(-c2ccc(N3C[C@H](Cn4ccnn4)OC3=O)cc2F)cn1)CC(O)CO (stereo partly drawn) [Example 6, (5R)-3-[4-(6-{[(2,3-Dihydroxypropyl)(methyl)amino]methyl}pyridin-3-yl)-3-fluorophenyl]-5-(1-1,2,3-triazol-1-ylmethyl)-1,3-oxazolidin-2-one] | 
48 | 175 °C | O=C1O[C@@H](Cn2ccnn2)CN1c1ccc(-c2ccc(C(O)CO)nc2)c(F)c1 (stereo partly drawn) [Example 4, (5R)-3-{4-[6-(1,2-Dihydroxyethyl)pyridin-3-yl]-3-fluorophenyl}-5-(1H-1,2,3-triazol-1-ylmethyl)-1,3-oxazolidin-2-one] | solubility thermodynamic [2]: 210 µM (≈ 83.9 µg/mL)
94 |  | O=C1O[C@@H](Cn2ccnn2)CN1c1ccc(-c2ccc(C(O)CN3CCOCC3)nc2)c(F)c1 (stereo partly drawn) [Example 1, (5R)-3-{3-Fluoro-4-[6-(1-hydroxy-2-morpholin-4-ylethyl)pyridin-3-yl]phenyl}-5-(1H-1,2,3-triazol-1-ylmethyl)-1,3-oxazolidin-2-one] | MIC [3]: 1 mg/L (≈ 2.13 µM); MIC [4]: 1 mg/L (≈ 2.13 µM); MIC [5]: 0.25 mg/L (≈ 0.534 µM); MIC [6]: 2 mg/L (≈ 4.27 µM); MIC [7]: 4 mg/L (≈ 8.54 µM)
4.8 | 177 °C | O=C1O[C@@H](Cn2ccnn2)CN1c1ccc(-c2ccc(CO)nc2)c(F)c1 [Ref Example 3, (5R)-3-{3-Fluoro-4-[6-(hydroxymethyl)pyridin-3-yl]phenyl}-5-(1H-1,2,3-triazol-1-ylmethyl)-1,3-oxazolidin-2-one] | 

The remaining lines, values behind:

SMILES | Ki [1] [µM] | melting point | further results
Cc1cn(C[C@H]2CN(c3ccc(-c4ccc(C#N)nc4)c(F)c3)C(=O)O2)nn1 [Ref Example 7, 5-(2Fluoro-4-{(5R)-5-[(4-methyl-1H-1,2,3-triazol-1-yl)methyl]-2-oxo-1,3-oxazolidin-3-yl}phenyl)pyridine-2-carbonitrile] | 3.65 | 210 to 212 °C | 
O=C1O[C@@H](Cn2ccnn2)CN1c1ccc(-c2ccc(CN3CCOCC3)nc2)c(F)c1 [Example 9, (5R)-3-{3-Fluoro-4-[6-(morpholin-4-ylmethyl)pyridin-3-yl]phenyl}-5-(1H-1,2,3-triazol-1-ylmethyl)-1,3-oxazolidin-2-one] |  | 175 °C | 
Cn1nnc(-c2ccc(-c3ccc(N4C[C@H](Cn5ccnn5)OC4=O)cc3F)cn2)n1 [Reference Example 6, (5R)-3-(3-Fluoro-4-(6-(2-methyl-2H-tetrazol-5-yl)pyrid-3-yl)phenyl)-5-(1H-1,2,3-triazol-1-ylmethyl)-1,3-oxazolidin-2-one, reference compound] |  |  | solubility thermodynamic [2]: < 7.1 µM
CN(C)Cc1ccc(-c2ccc(N3C[C@H](Cn4ccnn4)OC3=O)cc2F)cn1 [Example 8] | 15 | 160 °C | 
Cc1ccc(-c2ccc(N3C[C@H](Cn4ccnn4)OC3=O)cc2F)cn1 [Ref Example 2, (5R)-3-[3-Fluoro-4-(6-methylpyridin-3-yl)phenyl]-5-(1H-1,2,3-triazol-1-ylmethyl)-1,3-oxazolidin-2-one] | 0.6 |  | 
CN(C)CC(O)c1ccc(-c2ccc(N3C[C@H](Cn4ccnn4)OC3=O)cc2F)cn1 (stereo partly drawn) (as salt: hydrochloride) [Example 2, (5R)-3-(4-{6-[2-(Dimethylamino)-1-hydroxyethyl]pyridin-3-yl}-3-fluorophenyl)-5-(1H-1,2,3-triazol-1-ylmethyl)-1,3-oxazolidin-2-one] |  | > 115 °C (dec.) | 
O=C(OCc1ccc(-c2ccc(N3C[C@H](Cn4ccnn4)OC3=O)cc2F)cn1)N1CCOCC1 [Example 13, (5-{2-Fluoro-4-[(5R)-2-oxo-5-(1H-1,2,3-triazol-1-ylmethyl)-1,3-oxazolidin-3-yl]phenyl}pyridin-2-yl)methyl morpholine-4-carboxylate] |  | 131 to 133 °C | 
CC(C)NCC(O)c1ccc(-c2ccc(N3C[C@H](Cn4ccnn4)OC3=O)cc2F)cn1 (stereo partly drawn) (as salt: hydrochloride) [Example 3, (5R)-3-(3-Fluoro-4-{6-[1-hydroxy-2-(isopropylamino)ethyl]pyridin-3-yl}phenyl)-5-(1H-1,2,3-triazol-1-ylmethyl)-1,3-oxazolidin-2-one] |  | > 170 °C (dec.) | 
CC(=O)CC(O)c1ccc(-c2ccc(N3C[C@H](Cn4ccnn4)OC3=O)cc2F)cn1 (stereo partly drawn) [Example 14, (5R)-3-{3-Fluoro-4-[6(1-hydroxy-3-oxobutyl)pyridin-3-yl]phenyl}-5-(1H-1,2,3-triazol-1-ylmethyl)-1,3-oxazolidin-2-one] |  | 130 to 135 °C | 
N#Cc1ccc(-c2ccc(N3C[C@H](Cn4ccnn4)OC3=O)cc2F)cn1 [Ref Example 1, 5-{2-Fluoro-4-[(5R)-2-oxo-5-(1H-1,2,3-triazol-1-ylmethyl)-1,3-oxazolidin-3-yl]phenyl}pyridine-2-carbonitrile] | < 0.3 |  | 

Source: patent US20080021071A1, “3-{4-(Pyridin-3-Yl) Phenyl}-5-(1H-1,2,3-Triazol-1-Ylmethyl)-1,3-Oxazolidin-2-Ones as Antibacterial Agents” (ASTRAZENECA AB, priority 2004, published 2008)
